Columns and labels:
salmonella = assay: Concentration of salmonella in organs of challenged chicks fed test material; assay type: in vivo; conditions: chicks fed supplemented diet from hatch, sacrificed at 14 days
Protocol: Newly hatched chicks were fed a diet supplemented with the test materials, at 7 days of age, chicks were challenged 0.2 ml of a 2×10^9 salmonella culture. Chicks were sacrificed at 14 days of age (1 week after bacterial challenge), their organs dissected and cultured to determine bacterial counts.

[1] = test system: Salmonella enteriditis phage type VIII (SePT8); assay: Susceptibility test: paper disk zone of inhibition on inoculated agar plate; assay type: cell-based; conditions: paper disk impregnated with fixed concentration of test material, 2 days
Protocol: An agar plate was uniformly inoculated with salmonella and a paper disk impregnated with a fixed concentration of test material was placed on top of the agar surface. […] The bacteria used was Salmonella enteriditis phage type VIII (SePT8). The study was conducted for 2 days. A disk soaked in sterile water was used as control.

E. coli = conditions: cited from earlier work

Compound	concentration of salmonella in Liver (salmonella; challenged at 7 days with 0.2 ml of 2×10^9 culture, liver) [cfu]	concentration of salmonella in Ceca (salmonella; challenged at 7 days, ceca) [cfu]	concentration of salmonella in Colon (salmonella; challenged at 7 days, colon) [cfu]	concentration of salmonella in Duodenum (salmonella; challenged at 7 days, duodenum) [cfu]	concentration of salmonella in Spleen (salmonella; challenged at 7 days, spleen) [cfu]	Zone of Inhibition [1] [mm]	citral concentration in growth media that reduced the concentration of E. coli (E. coli)	citral concentration with bactericidal effect (E. coli; growth media, E. coli) [%]
O=S(=O)([O-])[O-].[Cu+2] [Copper Sulfate]	11	54	74	19	10	1.444	–	–
Gentamycin	–	–	–	–	–	1.300	–	–
CC(C)=CCCC(C)=CC=O [citral]	–	–	–	–	–	–	more than 0.01%	0.08

Source: patent US20060159727A1, “Prevention of Systemic Microbial Infection” (priority 2005, published 2006)
